# Test results: US8329702B2, “Heterocycles useful as modulators of ion channels” (Vertex Pharmaceuticals Incorporated, priority 2005, dated 2012)
# Like-named read-outs stand apart in the source and are kept apart here.
# What was measured:
# NaV1.8 [1] = biological target: T1, NaV1.8 (Homo sapiens, UniProt Q9Y5Y9); experiment: Activity against NaV1.8 channel (Table 3); type: cell-based
# Procedure: Compounds of the invention are useful as antagonists of voltage-gated sodium ion channels. Antagonist properties of test compounds were assessed as follows. Cells expressing the NaV of interest were placed into microtiter plates. After an incubation period, the cells were stained with fluorescent dyes sensitive to the transmembrane potential. The test compounds were added to the microtiter plate. The cells were stimulated with either a chemical or electrical means to evoke a NaV dependent membrane potential change from unblocked channels, which was detected and measured with trans-membrane potential-sensitive dyes. Antagonists were detected as a decreased membrane potential response to the stimulus. The optical membrane potential assay utilized voltage-sensitive FRET sensors described by Gonzalez and Tsien (See, Gonzalez, J. E. and R. Y. Tsien (1995) “Voltage sensing by fluorescence resonance energy transfer in single cells” Biophys J 69(4): 1272-80, and Gonzalez, J. E. and R. Y. Tsien (1997) “Improved indicators of cell membrane potential that use fluorescence resonance energy transfer” Chem Biol 4(4): 269-77) in combination with instrumentation for measuring fluorescence changes such as the Voltage/Ion Probe Reader (VIPR®) (See, Gonzalez, J. E., K. Oades, et al. (1999) “Cell-based assays and instrumentation for screening ion-channel targets” Drug Discov Today 4(9): 431-439).
# 24 hours before the assay on VIPR, CHO cells endogenously expressing a NaV1.2 type voltage-gated NaV are seeded in 96-well poly-lysine coated plates at 60,000 cells per well. Other subtypes are performed in an analogous mode in a cell line expressing the NaV of interest.
# The following is an example of how NaV1.3 inhibition activity is measured using the optical membrane potential method#2. Other subtypes are performed in an analogous mode in a cell line expressing the NaV of interest.
# Patch clamp electrophysiology was used to assess the efficacy and selectivity of sodium channel blockers in dorsal root ganglion neurons. Rat neurons were isolated from the dorsal root ganglions and maintained in culture for 2 to 10 days in the presence of NGF (50 ng/ml) (culture media consisted of NeurobasalA supplemented with B27, glutamine and antibiotics). Small diameter neurons (nociceptors, 8-12 μm in diameter) have been visually identified and probed with fine tip glass electrodes connected to an amplifier (Axon Instruments). The “voltage clamp” mode has been used to assess the compound's IC50 holding the cells at −60 mV. In addition, the “current clamp” mode has been employed to test the efficacy of the compounds in blocking action potential generation in response to current injections. The results of these experiments have contributed to the definition of the efficacy profile of the compounds.
# TTX-resistant sodium currents were recorded from DRG somata using the whole-cell variation of the patch clamp technique. Recordings were made at room temperature (˜22° C.) with thick walled borosilicate glass electrodes (WPI; resistance 3-4 MΩ) using an Axopatch 200B amplifier (Axon Instruments). After establishing the whole-cell configuration, approximately 15 minutes were allowed for the pipette solution to equilibrate within the cell before beginning recording. Currents were lowpass filtered between 2-5 kHz and digitally sampled at 10 kHz. Series resistance was compensated 60-70% and was monitored continuously throughout the experiment. The liquid junction potential (−7 mV) between the intracellular pipette solution and the external recording solution was not accounted for in the data analysis. Test solutions were applied to the cells with a gravity driven fast perfusion system (SF-77; Warner Instruments).
# Dose-response relationships were determined in voltage clamp mode by repeatedly depolarizing the cell from the experiment specific holding potential to a test potential of +10 mV once every 60 seconds. […]
# [2] = neuropathic pain, modest efficacy; cited from earlier work
# NaV1.8 [3] = biological target: T1, NaV1.8; conditions: read-out: TTX IC50; cited from earlier work
# T1 sequence (Q9Y5Y9 whole entry, looked up): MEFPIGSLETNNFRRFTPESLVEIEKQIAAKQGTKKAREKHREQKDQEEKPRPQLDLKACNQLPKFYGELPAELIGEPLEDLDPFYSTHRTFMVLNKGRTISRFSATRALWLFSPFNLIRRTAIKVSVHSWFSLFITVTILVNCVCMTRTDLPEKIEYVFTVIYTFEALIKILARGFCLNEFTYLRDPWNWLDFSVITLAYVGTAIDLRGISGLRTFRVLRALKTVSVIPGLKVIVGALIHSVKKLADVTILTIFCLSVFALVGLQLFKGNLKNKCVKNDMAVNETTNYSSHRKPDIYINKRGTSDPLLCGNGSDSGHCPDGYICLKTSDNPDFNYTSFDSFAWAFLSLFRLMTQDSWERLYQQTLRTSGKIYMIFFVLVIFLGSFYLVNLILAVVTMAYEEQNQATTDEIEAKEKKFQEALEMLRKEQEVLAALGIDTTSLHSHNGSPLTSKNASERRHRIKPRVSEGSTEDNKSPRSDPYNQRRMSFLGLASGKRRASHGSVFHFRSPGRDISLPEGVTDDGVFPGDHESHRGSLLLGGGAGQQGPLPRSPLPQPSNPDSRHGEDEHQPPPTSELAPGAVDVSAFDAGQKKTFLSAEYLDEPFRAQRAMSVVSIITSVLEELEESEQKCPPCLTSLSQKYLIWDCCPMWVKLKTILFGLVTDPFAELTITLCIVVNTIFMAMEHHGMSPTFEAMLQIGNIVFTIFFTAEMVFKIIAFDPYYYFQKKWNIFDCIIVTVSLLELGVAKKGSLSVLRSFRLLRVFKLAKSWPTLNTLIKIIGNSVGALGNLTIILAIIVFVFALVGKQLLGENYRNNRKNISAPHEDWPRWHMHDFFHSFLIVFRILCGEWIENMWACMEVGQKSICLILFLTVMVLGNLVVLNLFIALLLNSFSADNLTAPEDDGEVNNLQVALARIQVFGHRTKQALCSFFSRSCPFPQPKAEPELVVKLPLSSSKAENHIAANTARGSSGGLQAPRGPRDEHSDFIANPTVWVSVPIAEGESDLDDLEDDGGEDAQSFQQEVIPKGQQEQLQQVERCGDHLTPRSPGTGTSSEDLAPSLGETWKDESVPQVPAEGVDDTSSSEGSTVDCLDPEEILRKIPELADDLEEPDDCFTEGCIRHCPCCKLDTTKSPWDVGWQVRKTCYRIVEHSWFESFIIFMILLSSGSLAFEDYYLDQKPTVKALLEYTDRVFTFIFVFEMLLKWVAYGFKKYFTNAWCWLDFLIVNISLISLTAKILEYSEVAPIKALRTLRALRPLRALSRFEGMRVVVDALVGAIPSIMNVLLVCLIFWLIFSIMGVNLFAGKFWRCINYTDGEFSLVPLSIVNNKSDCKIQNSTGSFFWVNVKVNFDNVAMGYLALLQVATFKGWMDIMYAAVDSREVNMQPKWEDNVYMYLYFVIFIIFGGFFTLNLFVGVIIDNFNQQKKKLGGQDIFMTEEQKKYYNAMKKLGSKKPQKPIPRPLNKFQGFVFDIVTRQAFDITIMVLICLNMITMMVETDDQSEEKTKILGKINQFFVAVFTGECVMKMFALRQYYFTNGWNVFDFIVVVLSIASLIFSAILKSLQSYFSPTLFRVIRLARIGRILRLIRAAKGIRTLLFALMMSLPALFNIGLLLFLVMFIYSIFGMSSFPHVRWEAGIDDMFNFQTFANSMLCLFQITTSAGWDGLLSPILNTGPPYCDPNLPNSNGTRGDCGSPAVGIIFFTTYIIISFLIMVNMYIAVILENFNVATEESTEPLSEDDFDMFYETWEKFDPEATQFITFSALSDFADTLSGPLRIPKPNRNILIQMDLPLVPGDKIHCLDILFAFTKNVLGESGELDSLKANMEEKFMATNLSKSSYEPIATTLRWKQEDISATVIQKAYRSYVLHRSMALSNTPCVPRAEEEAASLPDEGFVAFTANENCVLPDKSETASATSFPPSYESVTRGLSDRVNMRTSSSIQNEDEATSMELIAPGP
SMILES,IC50 (NaV1.8 [1]),further results
CC(C)COC(=O)N1CCN(c2nc(-c3ccccc3O)cs2)CC1 [Compound 2],> 20 µM,
O=C(O[C@H]1CCOC1)N1CCN(c2nc(-c3ccccc3O)cs2)CC1 [Compound 7],> 20 µM,
COCCOC(=O)N1CCN(c2nc(-c3ccccc3O)cs2)CC1 [Compound 8],> 20 µM,
NCC1(CC(=O)O)CCCCC1 [Gabapentin],,patients in which it works [2]: 60%
CC(C)(C)COC(=O)N1CCN(c2nc(-c3ccccc3F)cs2)CC1 [Compound 11],> 20 µM,
"CC(C)COC(=O)N1CCN(c2nsc(-c3ccccc3O)n2)CC1 [Compound 17, Isobutyl 4-(5-(2-hydroxyphenyl)-1,2,4-thiadiazol-3-yl)piperazine-1-carboxylate]",> 20 µM,
COCCOC(=O)N1CCN(c2nc(-c3ccccc3F)cs2)CC1 [Compound 13],> 20 µM,
CC(C)OC(=O)N1CCN(c2nc(-c3ccccc3O)cs2)CC1 [Compound 6],> 20 µM,
"CC(C)COC(=O)NC1CCN(c2nc(-c3ccccc3O)ns2)CC1 [Compound 16, Isobutyl 1-(3-(2-hydroxyphenyl)-1,2,4-thiadiazol-5-yl)piperidin-4-ylcarbamate]",> 20 µM,
O=C([C@@H]1CCCO1)N1CCN(c2nc(-c3ccccc3O)cs2)CC1 [Compound 5],> 20 µM,
"NC1=N[C@H](O)[C@H]2[C@H]3O[C@]4(O)O[C@@H]([C@@H](O)[C@@]2(N1)[C@@H]4O)[C@]3(O)CO [TTX, tetrodotoxin]",,IC50 (NaV1.8 [3]): > 50 µM
O=C([C@H]1CCCO1)N1CCN(c2nc(-c3ccccc3F)cs2)CC1 [Compound 14],> 20 µM,
CC(C)[C@@H](O)C(=O)NCC1CCN(c2nc(-c3ccccc3O)ns2)CC1 [Compound 15],> 20 µM,
"CC(C)COC(=O)N1CCN(c2nc(-c3ccccc3F)cs2)CC1 [Compound 10, Isobutyl 4-(4-(2-fluorophenyl)thiazol-2-yl)piperazine-1-carboxylate]",> 20 µM,
"O=C(OCc1ccccc1)N1CCN(c2nc(-c3ccccc3F)cs2)CC1 [Compound 9, Benzyl 4-(4-(2-fluorophenyl)thiazol-2-yl)piperazine-1-carboxylate]",> 20 µM,
Oc1ccccc1-c1csc(N2CCCCC2)n1 [Compound 1],10 to 20 µM,
COc1ccccc1-c1csc(N2CCN(C(=O)OC(C)(C)C)CC2)n1 [Compound 3],10 to 20 µM,
CCCCS(=O)(=O)N1CCN(c2nc(-c3ccccc3O)cs2)CC1 [Compound 4],> 20 µM,
O=C(OC1CCOC1)N1CCN(c2nc(-c3ccccc3F)cs2)CC1 (stereo not shown) [Compound 12],> 20 µM,
